Data: patent US20090306214A1, “Use of Syk Tyrosine Kinase Inhibitors for the Treatment of Cell Proliferative Disorders” (priority 2006, published 2009)
Entries after “also recorded” stand apart in the source; their conditions may differ.

Tests used:
Jurkat cells = assay: Jurkat cell survival after a seven day period (Syk-containing); type: cell-based; conditions: 50 μg/ml; seven days; FIG. 4
Protocol: FIG. 4 illustrates the effect of AV 61S and AV 74S on Jurkat cell survival after a seven day period;
(§1) The jurkat E6.1 line is a Syk-deficient line; in fact, AV 61S after 7 days has no effect on this cell line (i.e., neither apoptosis nor inhibition, see […]). […] The viability study has been performed after 24 and 48 hours of incubation, each time for 3 evaluations; within 1, 3 and 6 hours.

HL-60 cells [1] = assay: Viability of HL-60 cells after 3 days, XTT method; type: cell-based, human
Excerpt: (§2) Secondly, the effect of compounds of the invention may be compared to the natural inhibitor of Syk, piceatannol.

human PBMC monocytes = assay: Effect on human PBMC monocytes; type: cell-based; conditions: FIGS. 11 and 12
Excerpt: FIG. 12 illustrates the effect of AV 74S treatment on monocytes;
FIGS. 11 and 12 compare the effect of compounds of the invention—AV 61S and AV 74S—on human PBMC T and B cells (FIG. 11) versus human PBMC monocytes (FIG. 12). […] T cells contain ZAP-70, rather than Syk, but B lymphocytes do contain Syk. […] As such, the effect seen on the B and T cells is believed to be due to the activity on the B cells, not the T cells.

E6.1 Jurkat cells = assay: E6.1 Jurkat (Syk-deficient) cell survival and viability; type: cell-based
Protocol: FIG. 18 illustrates, in comparison with cyclosporin-treated Jurkat cells, the viability of E6.1 Jurkat cells treated with differing concentrations of AV 61S or AV 74S after 24 hours; and
FIG. 19 illustrates, in comparison with cyclosporin-treated Jurkat cells, the viability of E6.1 Jurkat cells treated with differing concentrations of AV 61S or AV 74S after 48 hours.
as §1

PHA-activated PBMCs = assay: Inhibition of PHA-activated PBMCs (lymphocyte proliferation, thymidine incorporation); type: cell-based, human; conditions: varying concentrations
[2] = Viability of HL-60 cells after 3 days, XTT method; type: cell-based, human; conditions: human, HL-60 cells
Excerpt: as §2

HL-60 cells [3] = assay: Apoptosis of HL-60 cells after 2 days; type: cell-based, human
Excerpt: as §2

| SMILES | killing of Syk-containing Jurkat cells (Jurkat cells) | viability of HL-60 cells (HL-60 cells [1]; 50 μg/ml + Pic 10 μM) | viability of HL-60 cells (HL-60 cells [1]; 50 μg/ml + Pic 30 μM) | viability of HL-60 cells (HL-60 cells [1]; 50 μg/ml, no piceatannol) | viability of HL-60 cells (HL-60 cells [1]; 100 μg/ml + Pic 10 μM) | viability of HL-60 cells (HL-60 cells [1]; 100 μg/ml + Pic 30 μM) | viability of HL-60 cells (HL-60 cells [1]; 100 μg/ml, no piceatannol) | effect on monocytes as compared to T and B cells (human PBMC monocytes) | viability of E6.1 Jurkat cells (E6.1 Jurkat cells; 24 and 48 hours of incubation, FIGS. 18 and 19) | effect on Syk-deficient Jurkat E6.1 cell survival (E6.1 Jurkat cells; after 7 days, FIG. 3) | inhibitory effect on PHA-activated PBMCs (PHA-activated PBMCs; DMSO carrier, FIG. 1) | inhibitory effect on PHA-activated PBMCs (PHA-activated PBMCs; PBS carrier, FIG. 2) | viability at 3 days, 10 μM ([2]; Pic 10 μM alone) | viability at 3 days, 30 μM ([2]; Pic 30 μM alone) | Apoptosis of HL-60 cells (HL-60 cells [3]; Pic. 10 μM alone) | Apoptosis of HL-60 cells (HL-60 cells [3]; Pic. 30 μM alone) |
| --- | --- | --- | --- | --- | --- | --- | --- | --- | --- | --- | --- | --- | --- | --- | --- | --- |
| CC(CO)OCC(C)OCC(C)OCC(C)OCC(C)OCC(C)OCC(C)OC[C@H](Cc1ccccc1)NC(=O)CCc1ccc(O)cc1 (stereo partly shown) [AV 61S] | ~100% | 97 % of control | 83 % of control | 81 % of control | 59 % of control | 23 % of control | 36 % of control | more profound on monocytes | do not kill them | no effect; also recorded: lack of effect | inhibitory effect | lesser inhibitory effect |  |  |  |  |
| Oc1cc(O)cc(/C=C/c2ccc(O)c(O)c2)c1 [piceatannol, reference compound] |  |  |  |  |  |  |  |  |  |  |  |  | 89% | 79% | 20% | 33% |
